According to US7112590B2, “Thrombin inhibitors” (LEK Pharmaceuticals d.d., priority 2000, dated 2006):
Values belong to the molecule of their own block, whether it stands above or below them.

Legend:
Assay type in all cases: biochemical
trypsin = molecular target: T1, trypsin (UniProt P00760); assay: Determination of trypsin Ki (chromogenic substrate S-2222); details: substrate S-2222, pH 7.5, 25° C.
T1 construct: Trypsin (6000 E/mg prot; Sigma): dissolved in distilled water to give a stock solution of 300 E/mL
T1 sequence (P00760 1-246): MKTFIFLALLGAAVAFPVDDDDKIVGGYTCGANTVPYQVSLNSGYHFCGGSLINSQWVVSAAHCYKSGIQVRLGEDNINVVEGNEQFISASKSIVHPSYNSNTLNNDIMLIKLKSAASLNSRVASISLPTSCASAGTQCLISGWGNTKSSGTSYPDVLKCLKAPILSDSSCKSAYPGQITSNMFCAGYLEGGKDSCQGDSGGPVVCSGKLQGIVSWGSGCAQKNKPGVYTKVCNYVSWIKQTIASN
Experimental: (§1) The enzyme inhibitory effect of the compounds can be identified by determination of inhibition constant Ki. It denotes the degree of dissociation of the enzyme-inhibitor complex. Low dissociation constant means high potency of inhibitor. Ki can be determined during reaction of the enzyme with a specific chromogenic substrate which under hydrolysis by the enzyme develops color. Reaction in time is recorded by spectrophotometry and Ki is calculated from kinetic parameters (Vmax, Km, reaction rate).
2. Determination of Trypsin Ki
The ability of a compound to act as an inhibitor of trypsin catalytic activity was assessed by determination of Ki.
(§2) Buffer: HBSA, pH 7.5 (10 mM Hepes, 150 mM NaCl, 0.1% w/v bovine serum albumin)
Substrate (S-2222: N-benzoyl-Ile-Glu-Gly-Arg-pNA HCl, 25 mg; Chromogenix): dissolved in distilled water to 2 mM concentration. (Km is 21 μM)
Trypsin (6000 E/mg prot.; Sigma): dissolved in distilled water to give a stock solution of 300 E/mL.
Inhibitors: were dissolved in DMSO (10 mM stock solution) and diluted with distilled water to working solution (the highest final concentration of DMSO was 10%).
50 μL of buffer, 50 μL of test compound in water (final concentrations from 50 to 300 μM) and 50 μL of trypsin (3 mE/mL f.c.) were incubated for 15 minutes at room temperature. The reaction was started with 50 μL of S-2222 (50 μM or 100 μM f.c.) and the absorbance of each sample at 405 nm (at 25° C.) was measured in triplicates every 10 seconds for a period of 15 minutes using a microtiter plate reader (Tecan Sunrise).
Trypsin activity was determined from the change in absorbance in the linear part of velocity graph. Ki was calculated according to Cheng and Prussof (Biochem Pharmacol, 1973) where Ki is, IC50/(1+S/Km). The Km for the substrate was determined under test conditions with at least 6 substrate concentrations varying around Km and calculated with the non-linear regression program Curve expert.

[1] = tested on: normal pooled human plasma; assay: Activated partial thromboplastin time (aPTT) coagulation assay; details: concentration of inhibitor that doubled the clotting time
Experimental: (§3) The Anticoagulant effect of thrombin inhibitors was measured by thrombin time (TT), activated partial thromboplastin time (aPTT), and prothrombin time (PT) assays. Inhibitors were added to normal pooled human plasma over a range of concentrations and clotting was recorded in an automated coagulometer (Fibrintimer, Dade/Behring). The concentration of inhibitor that doubled the clotting time was determined for each assay.
2. Activated Partial Thromboplastin Time (aPTT)
Incubation of plasma with the optimal quantity of phospholipids and a surface activator leads to activation of factors of the intrinsic coagulation pathway. The addition of calcium ions triggers the coagulation process. The time of fibrin clot formation wass measured. aPTT was used as a screening test for coagulation disorders of the intrinsic coagulation pathway. It is prolonged due to intrinsic coagulation factors deficit or due to the presence of inhibitors.
Pathromtin SL (Dade/Behring): silicon dioxide particles, vegetable phospholipids, sodium chloride (2.4 g/L), Hepes (14.3 g/L, pH 7.6), sodium azide (<1 g/L). The reagent was used at room temperature (15–25° C.).
Calcium chloride solution: 0.025 mol/L, warmed to 37° C.
(§4) Normal pooled plasma: venous blood from 11 apparently healthy volunteers was collected (1 part 0.11 mol/L sodium citrate solution with 9 parts of blood) and centrifuged immediately at 2000×g for 30 minutes at 4° C. Plasma was removed, pooled and stored in aliquots at −70° C. until use.
(§5) Inhibitors: were dissolved in DMSO (10 mM stock solution) and diluted with distilled water to working solutions (the highest concentration 100 μM).
Inhibitor (10 μL working solution, concentrations from 5 μM to 100 μM) and pooled plasma (90 μL) were incubated at 37° C. for 5 minutes. Pathromtin (100 μL) was added and the sample was incubated for another 2 minutes at 37° C. The addition of calcium chloride (100 μL) triggered the coagulation process and clot formation was detected with a coagulometer in duplicate.

[2] = tested on: normal pooled human plasma; assay: Thrombin time (TT) coagulation assay; details: concentration of inhibitor that doubled the clotting time, bovine thrombin reagent
Experimental: as §3
In a plasma sample thrombin converts fibrinogen into fibrin and the clot is formed. The time for clot formation was measured. Thrombin time is prolonged due to disorders in fibrin polymerisation or due to the presence of thrombin inhibitors.
Thrombin (Test Thrombin Reagent, 1.5 IU/mL, Dade/Behring): lyophilized bovine thrombin was dissolved in 5 mL of HEPES (25 mmol/L, pH 7.4). The reagent was warmed to 37° C. prior to the assay.
as §4, §5
Inhibitors (10 μL working solution, concentrations from 2.5 μM to 100 μM) and pooled plasma (90 μL) were incubated at 37° C. for 5 minutes and then thrombin (200 μL) was added. Clot formation was measured in a coagulometer in duplicate.

[3] = tested on: normal pooled human plasma; assay: Prothrombin time (PT) coagulation assay; details: concentration of inhibitor that doubled the clotting time
Experimental: as §3
An optimal amount of thromboplastin and calcium are added to plasma sample and the time of fibrin clot formation wass measured. PT is a rapid, sensitive screening test for coagulation disorders of the extrinsic pathway. It is well suited for the induction and monitoring of oral anticoagulant therapy, for diagnosing genetic or acquired deficiencies in coagulation factors and checking the synthesis performance of the liver in hepatic diseases. PT is prolonged due to extrinsic coagulation factors deficit or due to the presence of inhibitors.
Thromboplastin (Thromborel S, Dade/Behring): was dissolved in 4 mL of distilled water. Reagent was at 37° C. prior to use at least 30 minutes.
as §4, §5
Inhibitor (10 μL working solution, concentrations from 5 μM to 100 μM) and pooled plasma (90 μL) were incubated at 37° C. for 5 minutes and then Thromborel S (200 μL) was added. Clot formation was measured with a coagulometer in duplicate.

human thrombin = molecular target: T2, human thrombin (Homo sapiens, UniProt P00734); assay: Determination of thrombin Ki (chromogenic substrate S-2238); details: for Ki: human thrombin, substrate S-2238, pH 7.5, 25° C.; for Ki trypsin/ Ki thrombin: selectivity: ratio of Ki for trypsin to Ki for thrombin
T2 construct: Human thrombin (308 NIH; Sigma); purchased Sigma
Experimental: as §1
1. Determination of Thrombin Ki
The ability of a compound to act as an inhibitor of human thrombin catalytic activity was assessed by determination of Ki.
as §2
Substrate (S-2238: H-D-Phe-Pip-Arg-pNA HCl, 25 mg; Chromogenix): dissolved in distilled water to 1 mM concentration.
Human thrombin (308 NIH; Sigma): dissolved in saline to give a stock solution of 20 NIH/mL.
Inhibitors: were dissolved in DMSO (10 mM stock solution) and diluted with distilled water to working solutions (the highest final concentration of DMSO was 3%).
A mixture of 50 μL of buffer, 50 μL of inhibitor in water (final concentrations from 10 to 100 μM) and 50 μL of thrombin (0.5 NIH U/mL f.c.) was incubated for 15 minutes at room temperature. The reaction was started with 50 μL of S-2238 (20 μM or 40 μM f.c.) and the absorbance of each sample at 405 nm (at 25° C.) was measured in triplicate every 10 seconds for a period of 15 minutes using a microtiter plate reader (Tecan Sunrise).
Thrombin activity was determined from the change in absorbance in the linear part of the velocity graph. Ki was calculated according to Cheng and Prussof (Biochem Pharmacol, 1973) where Ki is IC50/(1+S/Km). The Km for the substrate was determined under the test conditions with at least 6 substrate concentrations varying around Km and calculated with the non-linear regression programme Curve expert.
3. Selectivity to Thrombin
By the use of other serine protease like trypsin with the appropriate chromogenic substrate, selectivity of inhibitors with respect to thrombin was determined. Selectivity of an inhibitor is expressed as a ratio of Ki for trypsin to Ki for thrombin.

Structure (SMILES): O=C(O)CN[C@H](CC1CCCCC1)C(=O)N1CCC[C@H]1C(=O)NCC1CCc2n[nH]cc2C1 (stereo partly drawn)
Ki (trypsin): 19900 nM
aPTT [1]: 28 µM
TT [2]: 4.9 µM
PT [3]: 55.3 µM
Ki (human thrombin): 280 nM
Ki trypsin/ Ki thrombin (human thrombin): 70.6

Structure (SMILES): Nc1nc2c(s1)CC(NC(=O)[C@@H]1CCCN1C(=O)[C@@H](Cc1ccccc1)NS(=O)(=O)Cc1ccccc1)CC2 (stereo partly drawn) [drawing 96]
Ki (trypsin): > 68300 nM
aPTT [1]: 332 µM
TT [2]: 84 µM
PT [3]: 578 µM
Ki (human thrombin): 620 nM
Ki trypsin/ Ki thrombin (human thrombin): >110

Second part, led by results:

Ki (trypsin): > 68300 nM
Ki (human thrombin): 120 nM
Ki trypsin/ Ki thrombin (human thrombin): >569
Structure (SMILES): Nc1nc2c(s1)CC(NC(=O)[C@@H]1CCCN1C(=O)[C@@H](CC1CCCCC1)NS(=O)(=O)Cc1ccccc1)CC2 (stereo partly drawn) [drawing 91]
aPTT [1]: 59 µM
TT [2]: 15 µM
PT [3]: 114 µM

Ki (trypsin): 177000 nM
Ki (human thrombin): 140 nM
Ki trypsin/ Ki thrombin (human thrombin): 1267
Structure (SMILES): O=C(NCC1CCc2n[nH]cc2C1)[C@@H]1CCCN1C(=O)[C@@H](CC1CCCCC1)NS(=O)(=O)Cc1ccccc1 (stereo partly drawn) [drawing 92]
aPTT [1]: 42.3 µM
TT [2]: 11 µM
PT [3]: 78.3 µM

Ki (trypsin): 39900 nM
Ki (human thrombin): 370 nM
Ki trypsin/ Ki thrombin (human thrombin): 107.8
Structure (SMILES): Nc1nc2c(s1)CC(CNC(=O)[C@@H]1CCCN1C(=O)[C@@H](CC1CCCCC1)NS(=O)(=O)Cc1ccccc1)CC2 (stereo partly drawn) [drawing 95]
aPTT [1]: 64 µM
TT [2]: 15.8 µM
PT [3]: 95.3 µM
